Active and inactive are the calls of the source.
Tests used:
[1] = tested on: Streptococcus sp. 'group A'; experiment: Streptococcus pyogenes SK(-)GAS viability under kanamycin – luminescence, BacTiterGlo, confirmation, counter-screen for streptokinase expression inhibitor project, dose response (AID 1900); type: functional, organism-based
[2] = biological target: Heat shock protein HSP 90-alpha (Homo sapiens, UniProt P07900); type: functional, organism-based
Beta Lactamase = Beta Lactamase (Pseudomonas aeruginosa, UniProt Q932Y6); experiment: BLA reporter interference, concentration series – BLA reporter cells, FRET fluorescence, artefact control for NOD2-RIPK2 interaction inhibitor project, dose response (AID 651552); type: functional, cell-based
Sequence of Beta Lactamase (Q932Y6 whole entry): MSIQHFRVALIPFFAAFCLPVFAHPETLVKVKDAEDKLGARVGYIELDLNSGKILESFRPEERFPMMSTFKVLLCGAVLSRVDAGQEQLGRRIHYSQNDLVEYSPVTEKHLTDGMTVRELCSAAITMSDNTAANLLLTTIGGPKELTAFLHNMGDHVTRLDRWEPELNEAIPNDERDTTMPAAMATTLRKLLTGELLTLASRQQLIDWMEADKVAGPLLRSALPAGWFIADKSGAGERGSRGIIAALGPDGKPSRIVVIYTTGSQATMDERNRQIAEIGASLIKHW

Fatty acid synthase [3] = biological target: T1, Fatty acid synthase (Homo sapiens, UniProt P49327); experiment: inhibition of human FAS-TE enzyme activity – biochemical, kinetic fluorescence intensity, dose response (AID 624326); type: functional;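 note: rate of fluorescence rise from hydrolysis of a fluorogenic O-methyl fluorescein ester substrate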
T1 sequence (P49327 whole entry): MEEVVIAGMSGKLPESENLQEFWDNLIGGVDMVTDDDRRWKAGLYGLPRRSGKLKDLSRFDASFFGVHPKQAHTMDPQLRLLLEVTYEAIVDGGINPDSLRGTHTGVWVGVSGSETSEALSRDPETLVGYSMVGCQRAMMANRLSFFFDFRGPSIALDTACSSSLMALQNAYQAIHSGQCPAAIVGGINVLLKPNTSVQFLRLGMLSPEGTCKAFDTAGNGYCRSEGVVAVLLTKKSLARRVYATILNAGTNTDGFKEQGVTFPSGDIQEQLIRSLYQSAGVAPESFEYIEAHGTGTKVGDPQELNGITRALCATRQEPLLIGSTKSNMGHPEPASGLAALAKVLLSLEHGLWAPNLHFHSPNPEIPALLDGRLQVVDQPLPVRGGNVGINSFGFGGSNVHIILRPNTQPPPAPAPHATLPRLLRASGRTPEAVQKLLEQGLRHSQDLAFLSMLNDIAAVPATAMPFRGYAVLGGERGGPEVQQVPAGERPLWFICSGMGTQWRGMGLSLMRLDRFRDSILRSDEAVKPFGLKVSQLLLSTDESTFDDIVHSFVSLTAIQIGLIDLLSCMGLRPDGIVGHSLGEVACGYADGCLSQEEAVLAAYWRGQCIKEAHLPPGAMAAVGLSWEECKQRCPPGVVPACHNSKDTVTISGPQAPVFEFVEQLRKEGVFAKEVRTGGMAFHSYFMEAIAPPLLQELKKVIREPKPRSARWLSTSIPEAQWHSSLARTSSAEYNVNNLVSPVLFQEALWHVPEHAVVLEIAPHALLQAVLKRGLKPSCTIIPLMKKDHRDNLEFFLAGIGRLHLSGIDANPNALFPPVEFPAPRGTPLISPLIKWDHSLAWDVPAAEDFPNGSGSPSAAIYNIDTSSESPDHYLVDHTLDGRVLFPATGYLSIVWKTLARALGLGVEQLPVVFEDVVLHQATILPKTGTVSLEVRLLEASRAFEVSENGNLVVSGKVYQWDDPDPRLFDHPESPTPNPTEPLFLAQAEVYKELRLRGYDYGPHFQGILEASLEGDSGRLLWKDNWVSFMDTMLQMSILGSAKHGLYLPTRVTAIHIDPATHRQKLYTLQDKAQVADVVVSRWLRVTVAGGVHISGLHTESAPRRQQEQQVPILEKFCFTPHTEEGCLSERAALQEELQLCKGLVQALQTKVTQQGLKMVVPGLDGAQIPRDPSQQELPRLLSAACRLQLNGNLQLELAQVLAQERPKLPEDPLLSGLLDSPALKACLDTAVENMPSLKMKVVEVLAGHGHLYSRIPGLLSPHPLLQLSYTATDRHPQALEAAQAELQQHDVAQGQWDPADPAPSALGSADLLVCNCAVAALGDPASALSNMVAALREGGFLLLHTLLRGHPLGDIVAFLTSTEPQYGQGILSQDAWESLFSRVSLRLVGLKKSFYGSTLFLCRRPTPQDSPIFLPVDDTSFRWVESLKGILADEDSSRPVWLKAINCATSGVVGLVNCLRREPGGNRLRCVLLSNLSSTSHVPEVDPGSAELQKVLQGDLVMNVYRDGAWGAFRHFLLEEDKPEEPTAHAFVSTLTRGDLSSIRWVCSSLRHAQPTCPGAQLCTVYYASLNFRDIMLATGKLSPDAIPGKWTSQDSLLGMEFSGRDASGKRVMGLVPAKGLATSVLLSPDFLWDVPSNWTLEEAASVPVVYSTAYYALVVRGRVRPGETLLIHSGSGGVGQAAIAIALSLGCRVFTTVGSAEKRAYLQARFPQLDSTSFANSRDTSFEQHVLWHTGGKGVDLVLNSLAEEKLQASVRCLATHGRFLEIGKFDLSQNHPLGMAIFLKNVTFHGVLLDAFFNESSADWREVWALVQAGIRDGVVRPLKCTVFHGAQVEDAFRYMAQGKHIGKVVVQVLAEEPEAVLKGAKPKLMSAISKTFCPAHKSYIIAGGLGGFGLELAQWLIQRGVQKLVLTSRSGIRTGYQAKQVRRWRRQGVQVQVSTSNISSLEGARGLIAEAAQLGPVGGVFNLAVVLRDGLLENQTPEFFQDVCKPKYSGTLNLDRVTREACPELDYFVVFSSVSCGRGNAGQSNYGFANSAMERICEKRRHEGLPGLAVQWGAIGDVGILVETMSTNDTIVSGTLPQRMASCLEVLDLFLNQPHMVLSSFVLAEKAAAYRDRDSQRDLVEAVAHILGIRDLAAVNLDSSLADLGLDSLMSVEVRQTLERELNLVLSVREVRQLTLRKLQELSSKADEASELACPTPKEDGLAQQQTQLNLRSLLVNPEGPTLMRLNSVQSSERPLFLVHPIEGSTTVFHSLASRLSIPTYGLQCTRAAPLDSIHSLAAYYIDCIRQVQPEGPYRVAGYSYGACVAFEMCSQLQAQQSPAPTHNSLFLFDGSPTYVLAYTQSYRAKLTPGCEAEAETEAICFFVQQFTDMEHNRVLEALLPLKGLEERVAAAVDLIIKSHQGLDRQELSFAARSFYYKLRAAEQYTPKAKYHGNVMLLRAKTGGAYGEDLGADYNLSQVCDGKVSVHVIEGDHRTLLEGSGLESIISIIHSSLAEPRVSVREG

Fatty acid synthase [4] = biological target: T1, Fatty acid synthase; experiment: inhibition of human FAS-TE enzyme activity – biochemical, endpoint fluorescence intensity, uHTS hits, dose response (AID 624327); type: functional;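 note: fluorescence from hydrolysis of an O-methyl fluorescein acyl ester substrate by the enzyme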
[5] = non-specific 3'UTR reporter inhibition in Clone20-Shn3RL – cell-based, Renilla luciferase, cherry-picked, counter-screen for Shn3 inhibitor project, dose response (AID 624133); type: functional
[6] = loss of viability in HepG2 cells – cell-based, CellTiter-Glo, cherry-picked, cytotoxicity control for Shn3 inhibitor project, dose response (AID 624134); type: functional
Streptokinase A = biological target: T2, Streptokinase A (Streptococcus pyogenes serotype M1, UniProt P10520); experiment: viability-normalized secreted streptokinase activity reduction – plasminogen activation absorbance, OD405, dose response (AID 1914); type: functional, Streptococcus pyogenes M1 GAS;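 note: secreted streptokinase activity via plasminogen activation per viability signal from cell pellet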
T2 sequence (P10520 whole entry): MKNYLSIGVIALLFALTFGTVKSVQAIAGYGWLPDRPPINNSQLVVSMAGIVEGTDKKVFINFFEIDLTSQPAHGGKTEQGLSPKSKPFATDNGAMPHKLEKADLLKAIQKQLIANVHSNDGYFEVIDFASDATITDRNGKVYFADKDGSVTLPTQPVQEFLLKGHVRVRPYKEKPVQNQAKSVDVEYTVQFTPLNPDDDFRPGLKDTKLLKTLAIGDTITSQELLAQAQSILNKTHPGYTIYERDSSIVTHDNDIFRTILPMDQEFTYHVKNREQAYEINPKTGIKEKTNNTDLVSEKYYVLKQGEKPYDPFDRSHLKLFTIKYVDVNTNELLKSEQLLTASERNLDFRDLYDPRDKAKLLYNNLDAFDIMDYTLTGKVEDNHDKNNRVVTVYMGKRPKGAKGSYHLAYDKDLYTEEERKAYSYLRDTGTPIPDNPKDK

Streptococcus [7] = experiment: GAS UMAA2166 growth inhibition – luminescence, BacTiterGlo, counter-screen for streptokinase expression inhibitor project, dose response (AID 1915); type: functional, organism-based;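 note: potency for reduction of bacterial viability or growth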
[8] = reduction of Shn3 3'UTR-driven luciferase in osteoblasts – cell-based, Clone20 osteoblasts, firefly luciferase, cherry-picked, dose response (AID 624132); type: functional;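 note: firefly luciferase luminescence from reporter carrying the Shn3 3'UTR in osteoblasts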
Streptococcus [9] = experiment: Luminescence Microorganism-Based Dose Response Follow up to Identify Compounds Cytotoxic to Streptococcus. [Related pubchem assays: 1677 (Project Summary), 1915, 1914, 1902 (Retest at Dose), 1900 (Counter Screen), 1662 (Primary HTS)]; type: functional, organism-based
[10] = Fluorescence-based cell-based high throughput dose response assay for inhibitors of the interaction of nucleotide-binding oligomerization domain containing 2 (NOD2) and the receptor-interacting serine-threonine kinase 2 (RIPK2).; type: functional; conditions: Homo sapiens
[11] = biological target: Neuropeptide Y receptor type 2 (Homo sapiens, UniProt P49146); experiment: Fluorescence-based cell-based high-throughput dose response assay for agonists of NPY-Y2. [Related pubchem assays: 1703 (Screening assay (CNGC inhibitors).), 1359 (Screening assay (NPY-Y2 potentiators or agonists).), 1304 (Screening assay (NPY-Y1 potentiators or agonists).), 1710 (Screening assay (NPY-Y2 agonists).), 1791 (Summary AID.)]; type: functional
Sequence of Neuropeptide Y receptor type 2 (P49146 whole entry): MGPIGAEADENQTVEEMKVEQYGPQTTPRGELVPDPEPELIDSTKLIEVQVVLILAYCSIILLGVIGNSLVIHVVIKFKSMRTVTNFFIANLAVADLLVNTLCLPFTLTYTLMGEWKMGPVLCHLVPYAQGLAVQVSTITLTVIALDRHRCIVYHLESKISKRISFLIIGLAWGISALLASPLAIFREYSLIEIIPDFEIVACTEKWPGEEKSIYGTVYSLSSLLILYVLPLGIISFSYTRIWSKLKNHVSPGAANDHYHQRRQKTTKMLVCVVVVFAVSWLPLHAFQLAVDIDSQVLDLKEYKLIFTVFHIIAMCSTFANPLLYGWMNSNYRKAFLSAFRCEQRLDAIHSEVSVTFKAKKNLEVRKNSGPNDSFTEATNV

[12] = biological target: Neuropeptide Y receptor type 1 (Homo sapiens, UniProt P25929); experiment: Fluorescence-based counterscreen for agonists of NPY-Y2: cell-based high-throughput dose response assay for agonists of NPY-Y1.; type: functional
Sequence of Neuropeptide Y receptor type 1 (P25929 whole entry): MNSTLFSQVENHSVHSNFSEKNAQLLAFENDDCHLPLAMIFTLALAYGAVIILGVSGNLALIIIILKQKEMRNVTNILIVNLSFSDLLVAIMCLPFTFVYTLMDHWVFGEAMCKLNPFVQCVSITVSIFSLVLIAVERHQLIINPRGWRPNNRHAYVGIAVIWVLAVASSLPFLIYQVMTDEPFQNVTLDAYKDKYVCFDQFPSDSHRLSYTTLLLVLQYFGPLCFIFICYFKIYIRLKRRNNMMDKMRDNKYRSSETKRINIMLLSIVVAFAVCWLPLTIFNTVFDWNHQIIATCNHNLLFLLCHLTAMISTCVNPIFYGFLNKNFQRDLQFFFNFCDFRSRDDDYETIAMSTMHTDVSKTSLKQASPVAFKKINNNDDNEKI

HEK293 = experiment: Fluorescence-based counterscreen for potentiators or agonists of NPY-Y2: cell-based high-throughput dose response assay to identify inhibitors of cyclic nucleotide gated ion channel (CNGC) activity. In this assay, the parental HEK293 cell line transfected with a cyclic-nucleotide gated ion channel (CNGC)-based cAMP sensor is used to measure inhibition of isoproterenol-induced CNGC activity by test compound.; type: functional; conditions: Homo sapiens
Aminopeptidase N = biological target: T3, Aminopeptidase N (Plasmodium falciparum FcB1/Columbia, UniProt O96935); experiment: malaria alanyl aminopeptidase activity blockers – biochemical, fluorogenic H-Leu-NHMec substrate, 1536-well (AID 1445); parameters: species or system Plasmodium falciparum 3D7, 3D7
T3 sequence (O96935 whole entry): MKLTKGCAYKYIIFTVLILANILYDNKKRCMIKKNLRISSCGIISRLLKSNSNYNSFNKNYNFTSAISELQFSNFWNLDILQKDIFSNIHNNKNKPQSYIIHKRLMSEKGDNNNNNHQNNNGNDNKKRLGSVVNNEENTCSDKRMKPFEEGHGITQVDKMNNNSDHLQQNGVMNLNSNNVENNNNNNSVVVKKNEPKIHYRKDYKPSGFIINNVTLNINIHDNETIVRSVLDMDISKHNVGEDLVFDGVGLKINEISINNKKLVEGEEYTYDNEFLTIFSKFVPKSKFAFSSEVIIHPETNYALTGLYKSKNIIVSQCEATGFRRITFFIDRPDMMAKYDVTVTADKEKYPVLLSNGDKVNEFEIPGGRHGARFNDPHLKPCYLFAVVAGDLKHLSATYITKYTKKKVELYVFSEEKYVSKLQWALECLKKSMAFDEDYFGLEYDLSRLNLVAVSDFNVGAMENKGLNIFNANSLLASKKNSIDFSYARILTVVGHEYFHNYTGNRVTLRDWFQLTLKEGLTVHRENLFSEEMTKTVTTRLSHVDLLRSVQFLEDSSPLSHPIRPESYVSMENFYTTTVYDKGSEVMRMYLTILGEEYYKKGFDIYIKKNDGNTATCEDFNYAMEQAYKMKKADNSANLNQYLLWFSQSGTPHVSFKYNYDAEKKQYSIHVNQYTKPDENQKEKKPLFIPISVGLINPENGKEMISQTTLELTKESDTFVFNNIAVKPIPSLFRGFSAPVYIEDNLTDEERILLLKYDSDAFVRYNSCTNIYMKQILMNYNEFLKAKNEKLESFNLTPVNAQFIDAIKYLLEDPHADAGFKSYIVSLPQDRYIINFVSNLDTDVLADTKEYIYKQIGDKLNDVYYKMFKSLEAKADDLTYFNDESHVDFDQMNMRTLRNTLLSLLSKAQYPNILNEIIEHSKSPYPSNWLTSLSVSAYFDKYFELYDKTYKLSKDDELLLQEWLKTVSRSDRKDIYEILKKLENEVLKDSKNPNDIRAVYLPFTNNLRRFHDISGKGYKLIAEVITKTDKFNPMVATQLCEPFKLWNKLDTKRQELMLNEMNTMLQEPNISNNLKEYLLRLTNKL

[13] = HIV-1 AD8 envelope cell-cell fusion blockers – cherry-pick, dose response (AID 652062); type: functional, cell-based;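 note: luciferase signal from cell-cell fusion driven by HIV-1 clade B AD8 Env; potency is for inhibitors of fusion seen as a drop in luminescence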
[14] = blockers of HIV-1 ZM109 envelope-driven cell-cell fusion – HeLa effector, CEM target cells, luciferase, cherry-pick, dose response (AID 652058); type: functional, cell-based;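 note: luciferase signal from HIV-1 Env mediated cell-cell fusion of effector and target cells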
[15] = luciferase reporter signal suppression in cells – H4 neuroglioma cells, luminescence, dose response (AID 1990); type: functional, cell-based
[16] = off-target signal loss in HeLa-CEM21 co-culture – HeLa F-luc CTL cells, cherry-picked, counter-screen for HIV-1 Env fusion inhibitor project, dose response (AID 652040); type: functional, cell-based;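 note: potency for signal decrease marking cytotoxic or nonspecific inhibition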
[17] = Luminescence Cell-Based Dose Response HTS to Identify Inhibitors of 5'UTR Stem-Loop Driven Prion Protein mRNA Translation in H4 Neuroglioblastoma Cells. [Related pubchem assays: 1827 (Project Summary), 1813 (Primary HTS)]; type: functional
Wee1-like protein kinase = Wee1-like protein kinase (Homo sapiens, UniProt P30291); experiment: Dose Response Cell-based Assay for Inhibitors of Wee1 Degradation. [Related pubchem assays: 1410, 1321 ]; type: functional
Sequence of Wee1-like protein kinase (P30291 whole entry): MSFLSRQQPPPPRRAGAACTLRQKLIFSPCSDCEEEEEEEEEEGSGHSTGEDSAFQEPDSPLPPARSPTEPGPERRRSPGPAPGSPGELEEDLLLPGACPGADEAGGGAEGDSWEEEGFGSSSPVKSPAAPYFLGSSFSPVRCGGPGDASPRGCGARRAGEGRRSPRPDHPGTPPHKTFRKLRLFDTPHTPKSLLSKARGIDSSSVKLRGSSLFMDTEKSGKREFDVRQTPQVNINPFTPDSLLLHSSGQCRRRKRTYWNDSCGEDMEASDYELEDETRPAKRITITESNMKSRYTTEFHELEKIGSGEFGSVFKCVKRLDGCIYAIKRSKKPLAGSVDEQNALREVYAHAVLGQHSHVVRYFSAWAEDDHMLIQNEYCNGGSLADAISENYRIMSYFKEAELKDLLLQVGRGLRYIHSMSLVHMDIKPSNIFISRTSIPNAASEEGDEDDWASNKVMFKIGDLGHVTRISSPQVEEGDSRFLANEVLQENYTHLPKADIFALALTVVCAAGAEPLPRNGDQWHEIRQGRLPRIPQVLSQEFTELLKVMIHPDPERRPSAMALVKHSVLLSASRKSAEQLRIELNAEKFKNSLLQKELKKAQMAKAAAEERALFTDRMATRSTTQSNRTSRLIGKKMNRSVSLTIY

[18] = biological target: G2/mitotic-specific cyclin-B1 (Homo sapiens, UniProt P14635); experiment: Counterscreen assay for inhibitors of Wee1 degradation: dose response cell-based assay to identify inhibitors of cyclin B degradation. [Related pubchem assays: 1410, 1321 ]; type: functional
[19] = blockers of HIV-1 envelope-mediated cell-cell fusion – cherry-pick, dose response (AID 652057); type: functional, cell-based
[20] = alpha-synuclein stem-loop luciferase translation blockers – H4 neuroglioma cells, luminescence, confirmation (AID 1988); type: functional, cell-based
[21] = biological target: Serine/threonine-protein phosphatase PP1-alpha catalytic subunit (Homo sapiens, UniProt P62136); experiment: inhibition of protein phosphatase 1 activity – biochemical, fluorescence, dose response (AID 2403);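 note: phosphatase turnover of OMFP into fluorescent 3-O-methylfluorescein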
Sequence of Serine/threonine-protein phosphatase PP1-alpha catalytic subunit (P62136 whole entry): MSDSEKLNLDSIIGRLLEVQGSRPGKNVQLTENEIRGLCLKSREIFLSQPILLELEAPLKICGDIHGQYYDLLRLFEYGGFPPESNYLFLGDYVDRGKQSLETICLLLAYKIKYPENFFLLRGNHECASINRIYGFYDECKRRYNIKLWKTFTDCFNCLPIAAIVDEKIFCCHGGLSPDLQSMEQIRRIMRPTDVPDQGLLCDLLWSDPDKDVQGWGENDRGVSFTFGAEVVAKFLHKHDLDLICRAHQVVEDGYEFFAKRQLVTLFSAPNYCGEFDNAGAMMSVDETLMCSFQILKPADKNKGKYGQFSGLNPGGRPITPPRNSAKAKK

[22] = biological target: Serine/threonine-protein phosphatase (Homo sapiens, UniProt Q9BPW0); experiment: Counterscreen for inhibitors of PP1: fluorescence-based biochemical high throughput dose response assay to identify inhibitors of Protein Phosphatase 5 (PP5). [Related pubchem assays: 2034 (Summary (PP5 inhibitors)), 1987 (PP5 inhibitors in singlate), 2235 (PP1 inhibitors in singlate)]
Sequence of Serine/threonine-protein phosphatase (Q9BPW0 whole entry): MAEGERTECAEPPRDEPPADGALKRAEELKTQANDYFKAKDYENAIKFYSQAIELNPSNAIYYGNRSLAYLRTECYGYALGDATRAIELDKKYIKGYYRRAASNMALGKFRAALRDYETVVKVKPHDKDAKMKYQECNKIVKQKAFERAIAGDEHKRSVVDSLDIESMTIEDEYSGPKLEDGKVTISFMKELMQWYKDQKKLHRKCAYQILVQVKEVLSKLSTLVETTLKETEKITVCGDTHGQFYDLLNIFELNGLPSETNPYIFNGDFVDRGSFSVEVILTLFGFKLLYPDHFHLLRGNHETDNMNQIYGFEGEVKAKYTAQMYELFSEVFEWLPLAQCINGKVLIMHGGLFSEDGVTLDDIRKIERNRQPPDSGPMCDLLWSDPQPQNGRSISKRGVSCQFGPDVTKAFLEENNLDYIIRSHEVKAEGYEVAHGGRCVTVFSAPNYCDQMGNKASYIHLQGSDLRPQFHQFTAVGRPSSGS

## CC[C@@H](C)[C@H](NC(=O)OC(C)(C)C)c1nnc(S(=O)(=O)Cc2cc(C)ccc2C)o1
[1]
  EC50: 16.2 µM (active)
[2]
  AC50: 4.36 µM (active)
Beta Lactamase
  IC50: 15.2 µM (inactive)
Fatty acid synthase [3]
  IC50: 4.12 µM (active)
Fatty acid synthase [4]
  IC50: 3.33 µM (active)
[5]
  AC50: 15.4 µM (active)
[6]
  AC50: 45.1 µM (active)
Streptokinase A
  EC50: 3.43 µM (active)
Streptococcus [7]
  EC50: > 150 µM (not active)
[8]
  AC50: 5.77 µM (active)
Streptococcus [9]
  EC50: 33.5 µM (active)
[10]
  IC50: 3.12 µM (active)

## COc1ccc(CN2C(=O)/C(=C\Nc3ccccc3C(=O)O)c3ccccc3C2=O)cc1
[11]
  EC50: > 35.4 µM (not active)
[12]
  EC50: > 11.8 µM (not active)
HEK293
  EC50: > 35.4 µM (not active)
Aminopeptidase N
  IC50: 24.7 µM (active)

## CCOc1cccc(N(C(=O)Cc2cccs2)C(C(=O)NC2CCCCC2)c2cccn2C)c1 (configuration not stated)
[13]
  AC50: 42 µM (active)
[14]
  AC50: 24.5 µM (active)
[15]
  EC50: 15.1 µM (active)
[16]
  AC50: 55.9 µM (active)
[17]
  EC50: > 120 µM (not active)
Wee1-like protein kinase
  EC50: > 49.7 µM (not active)
[18]
  EC50: > 49.7 µM (not active)
[19]
  AC50: 6.74 µM (active)
[20]
  EC50: 19.1 µM (active)

## COc1cnc(-c2ccccn2)nc1Sc1ccc(F)cc1
[21]
  IC50: 7.21 µM (active)
[22]
  IC50: > 67 µM (not active)
